Data taken from publication PMC4018220 (Transplantation, 2014).
Like-named read-outs stand apart in the source and are kept apart here.

Experiments:
[1] = for Median [IQR] AUC: TAC, all weeks, dose and weight adjusted
[2] = cited from earlier work
clinical = conditions: human, in vivo

C=CC[C@@H]1/C=C(\C)C[C@H](C)C[C@H](OC)[C@H]2O[C@@](O)(C(=O)C(=O)N3CCCC[C@H]3C(=O)O[C@H](/C(C)=C/[C@@H]3CC[C@@H](O)[C@H](OC)C3)[C@H](C)[C@@H](O)CC1=O)[C@H](C)C[C@@H]2OC [TAC, tacrolimus]
Change in AUC over time ([1]; NNRTIs dosed with TAC): No change | Increase over time of dose and weight adjusted AUC ([1]; TAC given with protease inhibitors with or without NNRTIs): ~ 30% | Change of Tmax over time ([1]; TAC with NNRTIs alone): decreased | Change of Tmax over time ([1]; TAC with combination PI+NNRTIs): doubled | Median [IQR] AUC ([1]; +NNRTI): 3142 [2121-5157] ng*hr/mL/mg/kg | Median [IQR] AUC ([1]; +PI): 26889 [17208-42250] ng*hr/mL/mg/kg | Median [IQR] AUC ([1]; +PI/NNRTI): 12587 [8524-18780] ng*hr/mL/mg/kg | Median Tac Cx ([1]; W2, C0, NNRTI (n=4)): 199 ng/mL/mg/kg | Median Tac Cx ([1]; W2, C0, PI (n=4)): 963 ng/mL/mg/kg | Median Tac Cx ([1]; W2, C1, NNRTI (n=4)): 225 ng/mL/mg/kg | Median Tac Cx ([1]; W2, C1, PI (n=4)): 1045 ng/mL/mg/kg | Median Tac Cx ([1]; W2, C2, NNRTI (n=4)): 338 ng/mL/mg/kg | Median Tac Cx ([1]; W2, C2, PI (n=4)): 1687 ng/mL/mg/kg | Median Tac Cx ([1]; W2, C3, NNRTI (n=4)): 280 ng/mL/mg/kg | Median Tac Cx ([1]; W2, C3, PI (n=4)): 2325 ng/mL/mg/kg | Median Tac Cx ([1]; W2, C4, NNRTI (n=4)): 272 ng/mL/mg/kg | Median Tac Cx ([1]; W2, C4, PI (n=4)): 2332 ng/mL/mg/kg | Median Tac Cx ([1]; W12, C0, NNRTI (n=4)): 213 ng/mL/mg/kg | Median Tac Cx ([1]; W12, C0, PI (n=4)): 638 ng/mL/mg/kg | Median Tac Cx ([1]; W12, C1, NNRTI (n=4)): 420 ng/mL/mg/kg | Median Tac Cx ([1]; W12, C1, PI (n=4)): 1590 ng/mL/mg/kg | Median Tac Cx ([1]; W12, C2, NNRTI (n=4)): 368 ng/mL/mg/kg | Median Tac Cx ([1]; W12, C2, PI (n=4)): 2049 ng/mL/mg/kg | Median Tac Cx ([1]; W12, C3, NNRTI (n=4)): 290 ng/mL/mg/kg | Median Tac Cx ([1]; W12, C3, PI (n=4)): 2341 ng/mL/mg/kg | Median Tac Cx ([1]; W12, C4, NNRTI (n=4)): 296 ng/mL/mg/kg | Median Tac Cx ([1]; W12, C4, PI (n=4)): 2550 ng/mL/mg/kg | Median Tac Cx ([1]; W28, C0, NNRTI (n=3)): 193 ng/mL/mg/kg | Median Tac Cx ([1]; W28, C1, NNRTI (n=3)): 497 ng/mL/mg/kg | Median Tac Cx ([1]; W28, C2, NNRTI (n=3)): 368 ng/mL/mg/kg | Median Tac Cx ([1]; W28, C3, NNRTI (n=3)): 275 ng/mL/mg/kg | Median Tac Cx ([1]; W28, C4, NNRTI (n=3)): 223 ng/mL/mg/kg | Median Tac Cx ([1]; W52, C0, NNRTI (n=4)): 148 ng/mL/mg/kg | Median Tac Cx ([1]; W52, C1, NNRTI (n=4)): 301 ng/mL/mg/kg | Median Tac Cx ([1]; W52, C2, NNRTI (n=4)): 322 ng/mL/mg/kg | Median Tac Cx ([1]; W52, C3, NNRTI (n=4)): 242 ng/mL/mg/kg | Median Tac Cx ([1]; W52, C4, NNRTI (n=4)): 208 ng/mL/mg/kg | Association of higher TAC levels with new onset DM (OR) ([2]; HCV-positive liver transplant, p=0.12): 2.21 | Correlation of higher TAC trough levels with rejection ([2]; NIH multicenter trial): decreased rejection rates | Tmax (clinical): 2 to 3 h
